The supplement of paper PMC10331698
± gives the standard deviation of the averaged measurements.

Legend:
Assay in all cases: level (log10 ratio to DMSO vehicle control); higher = higher biomarker level / cell amount than vehicle control
Methotrexate = compound: CN(Cc1cnc2nc(N)nc(N)c2n1)c1ccc(C(=O)N[C@@H](CCC(=O)O)C(=O)O)cc1 [Methotrexate]; settings: in DMSO
Procedure: (§1)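 BioMAP Diversity Plus panel of 12 human primary cell co-culture systems (3C, 4H, LPS, SAg, BT, BF4T, BE3C, CASM3C, HDF3CGF, KF3CT, MyoF, Mphg). Compounds were added 1 h before stimulation and left for 24 h (MyoF 48 h; BT 72 h for soluble read-outs or 6 d for IgG). Biomarkers were read by ELISA, cytotoxicity by SRB, PBMC viability and proliferation by Alamar Blue. Each well value was divided by the mean of 8 DMSO control wells on the same plate and log10 transformed; duplicate blinded samples were tested at 4 concentrations.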

Perfluoropinacol = compound: OC(C(F)(F)F)(C(F)(F)F)C(O)(C(F)(F)F)C(F)(F)F [Perfluoropinacol]; settings: in DMSO
Procedure: as §1

[1] = compound: O=C(Cl)C(F)(F)C(F)(F)C(F)(F)C(=O)Cl [Hexafluoroglutaryl chloride]; settings: in DMSO
Procedure: as §1

[2] = compound: OCC(F)(F)C(F)(F)C(F)(F)C(F)(F)C(F)(F)C(F)(F)F [6:1 Fluorotelomer alcohol]; settings: in DMSO
Procedure: as §1

[3] = compound: FC(F)(I)C(F)(F)C(F)(F)C(F)(F)C(F)(F)C(F)(F)I [1,6-Diiodoperfluorohexane]; settings: 6700 nM; in DMSO
Procedure: as §1

Tetrafluorosuccinic acid = compound: O=C(O)C(F)(F)C(F)(F)C(=O)O [Tetrafluorosuccinic acid]; settings: in DMSO
Procedure: as §1

[4] = compound: O=S(=O)(O)CCC(F)(F)C(F)(F)C(F)(F)C(F)(F)F [4:2 Fluorotelomer sulfonic acid]; settings: in DMSO
Procedure: as §1

Row | Test System | level (log10) (Methotrexate; 1500 nM) | level (log10) (Methotrexate; 4400 nM) | level (log10) (Methotrexate; 13000 nM) | level (log10) (Methotrexate; 40000 nM) | level (log10) (Perfluoropinacol; 6700 nM) | level (log10) (Perfluoropinacol; 20000 nM) | level (log10) ([1]; 6700 nM) | level (log10) ([1]; 20000 nM) | level (log10) ([1]; 60000 nM) | level (log10) ([2]; 6700 nM) | level (log10) ([2]; 20000 nM) | level (log10) ([2]; 60000 nM) | level (log10) [3] | level (log10) (Tetrafluorosuccinic acid; 6700 nM) | level (log10) (Tetrafluorosuccinic acid; 20000 nM) | level (log10) (Tetrafluorosuccinic acid; 60000 nM) | level (log10) ([4]; 6700 nM) | level (log10) ([4]; 20000 nM) | level (log10) ([4]; 60000 nM)
1 | CASM3C:CCL2/MCP-1 | 0 ± 0.0028 | -0.0125 ± 0.005 | -0.002 ± 0.016 | -0.0195 ± 0.025 | 0.0185 ± 0.013 | 0.096 ± 0.017 | -0.0055 ± 0.013 | -0.005 ± 0.0014 | 0.011 ± 0.014 | -0.015 ± 0.0071 | -0.0125 ± 0.0078 | -0.034 ± 0.034 | -0.006 | -0.0005 ± 0.00071 | -0.0165 ± 0.005 | -0.0005 ± 0.025 | -0.002 ± 0.0057 | 0.0015 ± 0.011 | 0.0125 ± 0.036
2 | CASM3C:CD87/uPAR | 0.0385 ± 0.037 | 0.033 ± 0.023 | 0.0585 ± 0.015 | 0.04 ± 0.048 | -0.0245 ± 0.015 | -0.107 ± 0.018 | -0.014 ± 0.045 | -0.0225 ± 0.012 | -0.015 ± 0.038 | -0.004 ± 0.0071 | -0.0245 ± 0.00071 | -0.026 ± 0.035 | 0.001 | -0.01 ± 0.021 | -0.024 ± 0.013 | -0.0185 ± 0.0021 | 0 ± 0.027 | 0.0025 ± 0.0078 | -0.0165 ± 0.037
3 | CASM3C:CD106/VCAM-1 | -0.022 ± 0.05 | 0.016 ± 0.0014 | 0.009 ± 0.0028 | -0.002 ± 0.027 | -0.028 ± 0.0042 | -0.0385 ± 0.015 | -0.017 ± 0.03 | -0.013 ± 0.024 | 0.0025 ± 0.047 | -0.0075 ± 0.026 | -0.001 ± 0.024 | -0.074 ± 0.034 | -0.041 | 0.0015 ± 0.0035 | -0.008 ± 0.027 | -0.0045 ± 0.0064 | 0.0035 ± 0.0078 | -0.0285 ± 0.025 | -0.0325 ± 0.005
4 | CASM3C:CD141/Thrombomodulin | 0.0595 ± 0.005 | -0.008 ± 0.093 | 0.0155 ± 0.098 | 0.044 ± 0.021 | -0.0085 ± 0.021 | 0.0575 ± 0.0035 | -0.0055 ± 0.037 | -0.0135 ± 0.063 | -0.0125 ± 0.044 | 0.0105 ± 0.044 | 0.023 ± 0.0028 | 0.023 ± 0.0099 | 0.008 | -0.0015 ± 0.012 | 0.013 ± 0.023 | -0.0265 ± 0.025 | -0.01 ± 0.031 | -0.021 ± 0.0099 | -0.0045 ± 0.029
5 | CASM3C:CD142/Tissue Factor | 0.0505 ± 0.005 | 0.0195 ± 0.049 | 0.0265 ± 0.042 | 0.0305 ± 0.026 | -0.0515 ± 0.022 | -0.0235 ± 0.06 | -0.0245 ± 0.028 | -0.0635 ± 0.037 | -0.0395 ± 0.035 | 0.009 ± 0.017 | 0.0035 ± 0.0092 | -0.0315 ± 0.015 | 0.001 | -0.0165 ± 0.026 | -0.0345 ± 0.00071 | -0.025 ± 0.024 | -0.0115 ± 0.018 | 0.0115 ± 0.015 | 0.0095 ± 0.03
6 | CASM3C:CXCL8/IL-8 | 0.0365 ± 0.057 | 0.0255 ± 0.06 | 0.034 ± 0.05 | 0.063 ± 0.061 | 0.004 ± 0.011 | 0.029 | 0.0095 ± 0.021 | 0.006 ± 0.016 | 0.0005 ± 0.052 | 0.0005 ± 0.015 | 0.004 ± 0.018 | 0 ± 0.0014 | -0.02 | -0.001 ± 0.0042 | -0.0145 ± 0.018 | -0.002 ± 0.016 | 0.0035 ± 0.0035 | -0.0095 ± 0.026 | 0.0075 ± 0.025
7 | CASM3C:CXCL9/MIG | 0.0375 ± 0.021 | 0.0225 ± 0.0092 | 0.0165 ± 0.026 | 0.0615 ± 0.035 | -0.013 ± 0.02 | -0.0335 ± 0.011 | 0.0055 ± 0.043 | -0.002 ± 0.04 | 0.0115 ± 0.1 | -0.003 ± 0.0014 | -0.0085 ± 0.0021 | -0.0305 ± 0.046 | -0.018 | -0.006 ± 0.0099 | -0.0135 ± 0.0021 | 0.014 ± 0.0085 | -0.04 ± 0.03 | -0.0225 ± 0.013 | 0.006 ± 0.033
8 | CASM3C:HLA-DR | 0.0795 ± 0.0021 | -0.004 ± 0.068 | -0.079 ± 0.013 | 0.0375 ± 0.015 | -0.0885 ± 0.042 | -0.207 | -0.0095 ± 0.0035 | -0.0025 ± 0.033 | 0.002 ± 0.0057 | 0.0095 ± 0.0064 | 0.0135 ± 0.0021 | -0.0195 ± 0.035 | -0.006 | -0.005 ± 0.0099 | -0.0145 ± 0.013 | 0.0015 ± 0.0064 | 0.0045 ± 0.0064 | -0.017 ± 0.014 | -0.0115 ± 0.00071
9 | CASM3C:IL-6 | -0.035 ± 0.041 | -0.087 ± 0.076 | -0.009 ± 0.023 | -0.039 ± 0.041 | -0.0045 ± 0.025 | 0.033 ± 0.0085 | 0.006 ± 0.014 | -0.0145 ± 0.021 | 0.031 ± 0.017 | -0.008 ± 0.025 | -0.0165 ± 0.042 | -0.0005 ± 0.0021 | -0.063 | -0.0165 ± 0.015 | -0.0295 ± 0.0078 | -0.0015 ± 0.036 | 0.0015 ± 0.0092 | -0.0065 ± 0.0078 | 0.001 ± 0.028
10 | CASM3C:LDLR | 0.011 ± 0.0042 | 0.0465 ± 0.042 | 0.0205 ± 0.022 | 0.0455 ± 0.066 | -0.067 ± 0.0014 | -0.0505 ± 0.018 | -0.052 ± 0.03 | -0.0235 ± 0.025 | 0.0035 ± 0.035 | 0.0045 ± 0.016 | 0.014 ± 0.017 | -0.0585 ± 0.022 | -0.028 | 0.0005 ± 0.0035 | -0.02 ± 0.014 | 0.0015 ± 0.019 | -0.0145 ± 0.012 | 0.0015 ± 0.0021 | -0.0035 ± 0.025
11 | CASM3C:M-CSF | 0.0285 ± 0.013 | -0.051 ± 0.027 | -0.0455 ± 0.0021 | -0.0275 ± 0.081 | 0.0505 ± 0.0021 | 0.0315 ± 0.0092 | -0.001 ± 0.0028 | 0.0095 ± 0.057 | 0.03 ± 0.051 | -0.013 ± 0.0042 | -0.013 ± 0.037 | -0.0855 ± 0.023 | -0.042 | -0.008 ± 0.035 | -0.015 ± 0.016 | 0.0095 ± 0.033 | -0.0265 ± 0.011 | -0.02 ± 0.0028 | 0.001 ± 0.03
12 | CASM3C:PAI-I | 0.004 ± 0.013 | 0.0035 ± 0.0064 | 0.0125 ± 0.0035 | 0.0105 ± 0.0021 | -0.006 ± 0.0071 | -0.0075 ± 0.0064 | -0.0135 ± 0.021 | 0.0025 ± 0.0078 | 0.0065 ± 0.0021 | -0.0035 ± 0.005 | -0.0015 ± 0.00071 | 0.003 ± 0.0085 | 0.011 | 0.0025 ± 0.0021 | 0.009 ± 0.0042 | 0.0105 ± 0.0035 | -0.002 ± 0.0014 | -0.0015 ± 0.00071 | -0.002 ± 0.0057
13 | CASM3C:Proliferation | -0.011 ± 0.096 | 0.0805 ± 0.025 | 0.0585 ± 0.0021 | 0.041 ± 0.014 | -0.02 ± 0.013 | -0.122 ± 0.035 | 0.004 ± 0.0042 | -0.012 ± 0.027 | -0.031 ± 0.03 | 0.02 ± 0.037 | 0.0125 ± 0.0078 | -0.664 ± 0.24 | -0.119 | 0.001 ± 0.0057 | -0.053 ± 0.016 | -0.0085 ± 0.06 | -0.012 ± 0.021 | -0.044 ± 0.0057 | 0 ± 0.031
14 | CASM3C:SRB | 0.001 | -0.0095 ± 0.0064 | -0.0055 ± 0.0035 | -0.0105 ± 0.011 | -0.02 ± 0.0099 | -0.061 ± 0.0057 | -0.0045 ± 0.0021 | 0.007 ± 0.0042 | 0.0115 ± 0.016 | 0.008 | 0.003 ± 0.0057 | -0.04 ± 0.0042 | 0.002 | -0.012 ± 0.0028 | -0.005 ± 0.0014 | -0.0105 ± 0.005 | -0.0045 ± 0.0064 | -0.013 ± 0.0028 | -0.001 ± 0.0028
